We go through 3 compounds from article PMC10824666 (Nature Cancer, 2023).

Test in all cases: biochemical
Common to all, as to design: Eurofins DiscoverX kinase panel, competitive binding assay at 1 uM, percent of DMSO control
Holding throughout (settings): competitive binding, percent of DMSO control

One experiment addresses T1, Brk (Homo sapiens, UniProt Q13882).
T1 construct: gene PTK6
In outline:
(§1)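 Competitive binding assay across a 96-kinase panel with KIF18A compounds at 1 µM; values given as percentage of control (POC), single experiment.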

A further experiment concerns the target CDK4 (Homo sapiens, UniProt P11802). An outline of the steps:
as §1

A further experiment deals with EPHA2 (Homo sapiens, UniProt P29317). In outline: as §1
Another experiment has as its target T2, JNK3 (Homo sapiens, UniProt P53779).
T2 construct: gene MAPK10
An outline of the steps:
as §1

The target in the next experiment is MAP4K1 (Homo sapiens, UniProt Q92918). In outline: as §1
The next experiment concerns the target T3, MNK1b (Homo sapiens, UniProt Q9BUB5).
T3 construct: gene MKNK1; isoform b
An outline of the steps: as §1

For another experiment, the target named is T4, Mps1 (Homo sapiens, UniProt P33981).
T4 construct: gene TTK
T4 sequence (P33981 1-857): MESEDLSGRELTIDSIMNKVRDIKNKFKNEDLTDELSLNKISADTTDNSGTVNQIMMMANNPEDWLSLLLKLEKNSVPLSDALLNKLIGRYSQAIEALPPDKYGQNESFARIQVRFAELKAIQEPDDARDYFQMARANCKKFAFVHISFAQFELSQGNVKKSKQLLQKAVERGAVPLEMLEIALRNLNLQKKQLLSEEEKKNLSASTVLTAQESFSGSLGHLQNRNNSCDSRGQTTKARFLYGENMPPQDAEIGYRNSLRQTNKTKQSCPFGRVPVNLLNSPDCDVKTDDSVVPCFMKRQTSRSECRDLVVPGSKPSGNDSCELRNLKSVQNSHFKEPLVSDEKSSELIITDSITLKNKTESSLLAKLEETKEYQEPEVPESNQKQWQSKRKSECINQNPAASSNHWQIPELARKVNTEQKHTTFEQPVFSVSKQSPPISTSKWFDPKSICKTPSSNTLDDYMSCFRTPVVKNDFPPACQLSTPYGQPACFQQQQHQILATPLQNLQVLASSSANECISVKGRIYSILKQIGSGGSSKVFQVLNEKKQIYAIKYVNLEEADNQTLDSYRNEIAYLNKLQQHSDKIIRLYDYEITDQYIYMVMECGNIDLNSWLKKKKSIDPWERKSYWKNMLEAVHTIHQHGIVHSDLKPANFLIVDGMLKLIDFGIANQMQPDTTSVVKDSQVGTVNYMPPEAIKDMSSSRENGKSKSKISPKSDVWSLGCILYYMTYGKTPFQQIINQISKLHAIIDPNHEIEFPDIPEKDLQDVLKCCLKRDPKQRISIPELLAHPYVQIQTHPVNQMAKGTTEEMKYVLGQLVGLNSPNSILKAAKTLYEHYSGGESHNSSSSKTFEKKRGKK
An outline of the steps: as §1

A further experiment addresses c-KIT (Homo sapiens, UniProt P10721). In outline: as §1
Where [1] appears, read: read-out: Kinome Profiling performed by Eurofins DiscoverX / AM-0277, 1.0 µM / POC.
[2] abbreviates: read-out: Kinome Profiling performed by Eurofins DiscoverX / AM-1882, 1.0 µM / POC.
[3] abbreviates: read-out: Kinome Profiling performed by Eurofins DiscoverX / AM-5308, 1.0 µM / POC.

Like-named read-outs stand apart in the source and are kept apart here.

T1 sequence (Q13882 whole entry): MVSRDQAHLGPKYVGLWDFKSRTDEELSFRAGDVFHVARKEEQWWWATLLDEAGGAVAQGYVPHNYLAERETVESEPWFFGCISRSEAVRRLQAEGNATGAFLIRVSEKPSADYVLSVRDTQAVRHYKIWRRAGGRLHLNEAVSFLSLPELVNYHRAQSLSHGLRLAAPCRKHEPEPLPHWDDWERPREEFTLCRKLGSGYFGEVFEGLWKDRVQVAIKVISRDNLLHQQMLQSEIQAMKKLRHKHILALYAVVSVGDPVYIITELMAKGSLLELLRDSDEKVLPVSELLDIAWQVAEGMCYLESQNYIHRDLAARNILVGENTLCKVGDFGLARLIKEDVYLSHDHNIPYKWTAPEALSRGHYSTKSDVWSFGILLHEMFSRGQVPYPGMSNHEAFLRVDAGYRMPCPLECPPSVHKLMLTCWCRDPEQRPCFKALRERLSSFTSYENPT
Chain of EPHA2 (P29317 whole entry): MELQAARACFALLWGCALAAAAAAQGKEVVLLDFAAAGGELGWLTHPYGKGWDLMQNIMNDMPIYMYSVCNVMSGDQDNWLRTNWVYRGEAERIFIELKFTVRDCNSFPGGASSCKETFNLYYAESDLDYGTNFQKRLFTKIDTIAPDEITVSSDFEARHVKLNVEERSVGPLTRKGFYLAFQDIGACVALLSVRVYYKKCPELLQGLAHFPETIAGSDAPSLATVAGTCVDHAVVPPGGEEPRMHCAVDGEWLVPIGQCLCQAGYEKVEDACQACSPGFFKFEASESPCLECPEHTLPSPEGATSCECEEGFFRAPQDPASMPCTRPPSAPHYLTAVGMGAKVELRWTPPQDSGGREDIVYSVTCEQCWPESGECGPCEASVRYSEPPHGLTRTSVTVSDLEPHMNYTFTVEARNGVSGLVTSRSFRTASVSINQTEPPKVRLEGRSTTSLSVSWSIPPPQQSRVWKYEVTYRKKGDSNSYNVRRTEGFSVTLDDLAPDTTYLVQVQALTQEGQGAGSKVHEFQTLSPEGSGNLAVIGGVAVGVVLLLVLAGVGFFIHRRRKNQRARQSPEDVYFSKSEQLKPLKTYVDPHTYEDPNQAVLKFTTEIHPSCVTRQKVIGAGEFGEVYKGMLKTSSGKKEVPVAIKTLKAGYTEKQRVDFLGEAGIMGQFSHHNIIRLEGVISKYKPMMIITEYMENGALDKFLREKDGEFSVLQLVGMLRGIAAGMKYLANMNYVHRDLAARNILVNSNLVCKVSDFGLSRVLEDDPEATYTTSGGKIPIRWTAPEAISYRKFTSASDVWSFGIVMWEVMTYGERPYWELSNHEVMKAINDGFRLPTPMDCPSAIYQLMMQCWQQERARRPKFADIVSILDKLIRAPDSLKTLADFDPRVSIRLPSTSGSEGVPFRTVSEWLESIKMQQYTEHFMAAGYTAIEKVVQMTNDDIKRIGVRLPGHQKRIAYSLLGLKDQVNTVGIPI
T3 sequence (Q9BUB5 whole entry, canonical isoform): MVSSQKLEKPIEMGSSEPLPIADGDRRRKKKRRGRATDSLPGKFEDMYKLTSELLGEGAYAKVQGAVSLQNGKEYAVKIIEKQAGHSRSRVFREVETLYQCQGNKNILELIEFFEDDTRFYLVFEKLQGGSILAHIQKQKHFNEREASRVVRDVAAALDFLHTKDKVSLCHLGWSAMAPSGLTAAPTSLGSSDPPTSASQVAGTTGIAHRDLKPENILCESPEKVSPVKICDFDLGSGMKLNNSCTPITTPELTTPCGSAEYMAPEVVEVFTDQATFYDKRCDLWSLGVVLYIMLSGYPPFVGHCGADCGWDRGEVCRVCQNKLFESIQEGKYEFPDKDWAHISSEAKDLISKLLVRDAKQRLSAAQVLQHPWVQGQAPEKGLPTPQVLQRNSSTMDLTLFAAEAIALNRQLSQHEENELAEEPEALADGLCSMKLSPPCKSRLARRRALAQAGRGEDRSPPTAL
Chain of c-KIT (P10721 whole entry): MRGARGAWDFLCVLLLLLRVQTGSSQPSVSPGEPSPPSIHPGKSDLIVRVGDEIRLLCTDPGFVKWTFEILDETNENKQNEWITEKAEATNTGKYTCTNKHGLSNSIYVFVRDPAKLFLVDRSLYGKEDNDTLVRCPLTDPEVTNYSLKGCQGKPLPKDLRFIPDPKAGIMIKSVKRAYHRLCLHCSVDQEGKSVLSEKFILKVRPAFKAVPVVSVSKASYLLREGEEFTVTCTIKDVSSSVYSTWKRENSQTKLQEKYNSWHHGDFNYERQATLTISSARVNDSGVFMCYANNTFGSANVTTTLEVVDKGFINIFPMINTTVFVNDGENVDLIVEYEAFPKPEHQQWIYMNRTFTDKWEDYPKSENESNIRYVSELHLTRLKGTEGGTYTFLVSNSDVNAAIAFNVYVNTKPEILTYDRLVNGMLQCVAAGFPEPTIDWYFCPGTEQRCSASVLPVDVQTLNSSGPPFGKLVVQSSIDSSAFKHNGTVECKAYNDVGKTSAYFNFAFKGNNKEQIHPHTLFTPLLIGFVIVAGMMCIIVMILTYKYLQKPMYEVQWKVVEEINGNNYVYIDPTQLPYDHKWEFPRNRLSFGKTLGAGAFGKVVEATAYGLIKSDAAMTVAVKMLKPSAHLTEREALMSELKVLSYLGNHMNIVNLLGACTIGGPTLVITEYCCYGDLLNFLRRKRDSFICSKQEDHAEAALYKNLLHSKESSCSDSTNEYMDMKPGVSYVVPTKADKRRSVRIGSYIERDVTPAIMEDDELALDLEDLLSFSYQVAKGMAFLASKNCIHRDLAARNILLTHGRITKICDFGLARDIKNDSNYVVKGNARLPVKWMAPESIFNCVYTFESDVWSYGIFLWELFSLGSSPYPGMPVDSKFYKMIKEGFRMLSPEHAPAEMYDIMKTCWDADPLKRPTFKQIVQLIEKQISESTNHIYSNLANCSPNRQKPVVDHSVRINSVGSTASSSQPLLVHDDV
Chain of MAP4K1 (Q92918 whole entry): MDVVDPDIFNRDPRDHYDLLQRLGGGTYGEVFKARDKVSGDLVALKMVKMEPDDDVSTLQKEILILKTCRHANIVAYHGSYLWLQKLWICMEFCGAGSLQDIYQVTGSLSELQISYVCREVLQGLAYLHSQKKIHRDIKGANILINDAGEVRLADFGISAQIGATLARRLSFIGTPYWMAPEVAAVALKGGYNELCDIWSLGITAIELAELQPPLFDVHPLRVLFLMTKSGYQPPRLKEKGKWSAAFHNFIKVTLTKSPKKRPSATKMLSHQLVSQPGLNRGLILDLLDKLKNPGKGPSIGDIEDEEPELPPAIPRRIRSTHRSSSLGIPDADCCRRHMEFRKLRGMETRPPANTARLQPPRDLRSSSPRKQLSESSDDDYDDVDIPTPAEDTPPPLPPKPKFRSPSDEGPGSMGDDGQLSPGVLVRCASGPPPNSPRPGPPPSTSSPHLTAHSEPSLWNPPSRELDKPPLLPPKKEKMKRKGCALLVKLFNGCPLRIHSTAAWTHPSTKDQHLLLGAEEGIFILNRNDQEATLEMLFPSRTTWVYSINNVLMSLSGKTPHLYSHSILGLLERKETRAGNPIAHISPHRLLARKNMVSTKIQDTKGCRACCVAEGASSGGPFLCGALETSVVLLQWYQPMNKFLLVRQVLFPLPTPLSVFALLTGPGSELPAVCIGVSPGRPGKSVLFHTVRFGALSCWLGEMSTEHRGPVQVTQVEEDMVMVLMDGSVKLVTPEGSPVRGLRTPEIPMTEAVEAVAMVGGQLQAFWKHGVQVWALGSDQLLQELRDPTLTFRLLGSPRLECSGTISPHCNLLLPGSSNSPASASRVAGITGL
T2 sequence (P53779 whole entry): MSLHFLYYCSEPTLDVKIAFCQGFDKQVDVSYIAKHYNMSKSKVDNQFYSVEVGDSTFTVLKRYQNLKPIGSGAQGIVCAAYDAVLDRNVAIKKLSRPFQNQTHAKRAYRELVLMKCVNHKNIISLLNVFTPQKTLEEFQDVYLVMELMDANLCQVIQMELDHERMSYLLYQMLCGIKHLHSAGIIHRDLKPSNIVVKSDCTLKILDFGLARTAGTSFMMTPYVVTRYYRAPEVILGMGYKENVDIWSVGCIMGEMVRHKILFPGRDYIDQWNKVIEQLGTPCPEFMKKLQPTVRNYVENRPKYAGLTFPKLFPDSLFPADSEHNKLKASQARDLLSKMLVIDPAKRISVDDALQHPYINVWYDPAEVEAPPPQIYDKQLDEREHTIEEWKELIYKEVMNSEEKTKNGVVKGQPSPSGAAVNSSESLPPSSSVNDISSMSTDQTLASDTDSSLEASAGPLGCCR
Chain of CDK4 (P11802 whole entry): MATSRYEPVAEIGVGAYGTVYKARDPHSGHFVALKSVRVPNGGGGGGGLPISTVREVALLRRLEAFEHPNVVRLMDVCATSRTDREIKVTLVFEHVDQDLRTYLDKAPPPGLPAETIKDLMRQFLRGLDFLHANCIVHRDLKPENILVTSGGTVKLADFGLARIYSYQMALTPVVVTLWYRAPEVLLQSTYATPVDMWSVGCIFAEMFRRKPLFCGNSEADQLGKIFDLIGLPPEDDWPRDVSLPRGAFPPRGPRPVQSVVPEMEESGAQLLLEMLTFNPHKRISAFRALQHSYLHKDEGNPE

On to `CC(C)(CO)Nc1ccc(C(=O)Nc2cccc(S(=O)(=O)C3CCCC3)c2)c(N2CCC3(CC2)CC3)n1` [AM-0277], for which the remaining activity at 1 µM at Brk (setting [1]) came out at 95%; at CDK4 (setting [1]), 100%; at EPHA2 (setting [1]) it was 80%; on JNK3 (setting [1]), 100%; at MAP4K1 (setting [1]) it was 88%; at MNK1b (setting [1]) it was 100%. Also, the remaining activity at 1 µM on Mps1 (setting [1]) amounted to 76%; on c-KIT (setting [1]), 92%.
`CC(C)(C)NS(=O)(=O)c1cccc(NC(=O)c2ccc(S(=O)(=O)NC(C)(C)C)cc2N2CCC3(CC2)CC3)c1` [AM-1882]: the remaining activity at 1 µM on Brk (setting [2]) is 94%; on CDK4 (setting [2]), 64%; on EPHA2 (setting [2]) it was 99.5%; on JNK3 (setting [2]) it was 82%; at MAP4K1 (setting [2]), 90%; on MNK1b (setting [2]), 100%. In addition, the values for the remaining activity at 1 µM on Mps1 (setting [2]) and on c-KIT (setting [2]) were 97% and 100%, respectively.
Take `C[C@@H]1CN(c2cccc(NC(=O)c3ccc(NS(=O)(=O)CCO)cc3N3CCC4(CC3)CC4)n2)CCO1` [AM-5308]: the remaining activity at 1 µM on Brk (setting [3]) is 93.5%; at CDK4 (setting [3]), 98.5%; at EPHA2 (setting [3]), 92.5%; at JNK3 (setting [3]), 88.5%; on MAP4K1 (setting [3]), 98.5%; at MNK1b (setting [3]), 96.5%. Also, the remaining activity at 1 µM on Mps1 (setting [3]) stood at 47%; at c-KIT (setting [3]) it was 100%.
